Assay results published in patent publication US20190226949A1, “IRIDIUM COMPLEXES FOR CELLULAR IMAGING” (UNIVERSITY OF SOUTH AUSTRALIA, priority 2016, published 2019).
Where “and” joins values, the source holds several entries; their conditions need not be identical. Equal values may be shown once.

Experiments:
[1] = Photophysical measurements (absorption, emission, lifetime, quantum yield) in diluted solutions; assay type: physicochemical; conditions: for Emission λem / τaer, excited state lifetime (relative weight in parentheses) / τdeaer, excited state lifetime (relative weight in parentheses): 298K; for Φaer, quantum yield / Φdeaer, quantum yield: versus Ru(bpy)3^2+ in water (φr = 0.028); for Φdeaer, quantum yield / τdeaer, excited state lifetime (relative weight in parentheses): deaerated; for knr: calculated as [(1 − φ)/τ] from deaerated solutions; for kr: calculated as [φ/τ] from deaerated solutions; for Φ, quantum yield: versus Ru(bpy)3^2+ in water
Excerpt: A summary of the photophysical data for the complexes as diluted solutions (10^−5 M) in dichloromethane, water, PBS, lysosomal fluid solution, and ethyl laurate is reported in Table 1. All the listed aqueous media also contain 0.1% DMSO to favour the solubilisation of the complexes. The various solvents have been chosen to identify potential modulations on the photophysical behaviour of the iridium complexes in diverse cellular environments such as cytoplasm, endosome/lysosomes acidic organelles, or lipid-rich compartments like membranes, endoplasmic reticulum, and lipid droplets. In general, the photophysical characteristics were measured in aerated solutions to take into account the presence of oxygen in live cells. On the other hand, dichloromethane solutions were compared as aerated and degassed to confirm oxygen sensitivity and triplet character of the excited states of the complexes.
Absorption spectra were recorded at room temperature using a Cary 4000 UV/Vis spectrometer. Uncorrected steady state emission and excitation spectra were recorded on an Edinburgh FLSP980-S2S2-stm spectrometer equipped with: i) a temperature-monitored cuvette holder; ii) 450 W Xenon arc lamp; iii) double excitation and emission monochromators; iv) a Peltier cooled Hamamatsu R928P photomultiplier tube (spectral range 200-870 nm). Emission and excitation spectra were corrected for source intensity (lamp and grating) and emission spectral response (detector and grating) by a calibration curve supplied with the instrument. According to the approach described by Demas and Crosby, luminescence quantum yields (Φem) were measured in optically dilute solutions (O.D.<0.1 at excitation wavelength) obtained from absorption spectra on a wavelength scale [nm] and compared to the reference emitter by the following equation: […]
where A is the absorbance at the excitation wavelength (λ), I is the intensity of the excitation light at the excitation wavelength (λ), n is the refractive index of the solvent, D is the integrated intensity of the luminescence and Φ is the quantum yield. The subscripts r and x refer to the reference and the sample, respectively. The quantum yield determinations were performed at identical excitation wavelength for the sample and the reference, therefore cancelling the I(λr)/I(λx) term in the equation. The quantum yields of complexes were measured against Rubipy in water (Φr=0.028). Emission lifetimes (z) were determined with the time correlated single photon counting technique (TCSPC) with the same Edinburgh FLSP980-S2S2-stm spectrometer using either a pulsed picosecond LED (EPLED/EPL 377 nm, FHWM<800 ps) or a microsecond flashlamp. The goodness of fit was assessed by minimising the reduced χ^2 function and by visual inspection of the weighted residuals. The solvents used for the preparation of the solutions for the photophysical investigations were of LR grade and the water was deionised. Degassing of the dichlorometane solutions was performed using the freeze-pump-thaw method. Experimental uncertainties are estimated to be ±8% for lifetime determinations, ±20% for quantum yields, ±2 nm and ±5 nm for absorption and emission peaks, respectively.

[2] = system: H9c2 rat cardiomyoblast cells; test: Staining and co-staining of live H9c2 cells, confocal and two-photon microscopy; assay type: cell-based
Procedure: Live H9c2 rat cardiomyoblasts were incubated with the iridium complexes for 30 minutes. Complexes were made to a final concentration of 20 μM in the cell culture medium with DMSO concentration <0.2%. Under these conditions, the luminescence from the iridium complexes within the cells was detected via confocal microscopy under single-photon excitation (403 nm) or two-photon excitation (810-840 nm).
To determine the localisation of the iridium complexes, co-staining experiments were carried out with the use of ER-Tracker™ Red (endoplasmic reticulum), LysoTracker® Red DND-99 (acidic compartments), MitoTracker® Red (mitochondria), BODIPY® 500/510 C1, C12(fatty acid) or β-BODIPY® FL HPC (phospholipids). […] This difference was also in agreement with the trend of the quantum yield data illustrated before and detection of internalised complex by ICP-MS.
H9c2 rat cardiomyoblast cell line was a kind gift from Professor Janna Morrison (University of South Australia). The H9c2 cells were maintained in high-glucose (4500 mg/L) DMEM medium (Sigma-Aldrich, USA) containing 10% fetal bovine serum (FBS; In Vitro Technologies, USA) and 2 mM L-glutamine (Sigma-Aldrich, USA) at 37° C. and 5% CO2. The H9c2 cells were cultured in […] flasks, and cells (1×10^6 cells/mL) that had been passaged, from two up to five times were used for experiments. For live cell imaging and MTS assay, the H9c2 cells (1×10^5 cells/mL) were cultured overnight in either ibidi μ-Slide 8 wells in a final volume of 250 μL or 96-well microtiter plate in a final volume of 200 μL in absence of Ir-based molecular probes.
The H9c2 cells were incubated with 20 μM of Ir-based molecular probes for 30 minutes in FBS-free media (300 μL) at 37° C. and 5% CO2. These cells were washed twice with phosphate buffered saline (PBS) and once with FBS-free media, and then co-stained with either ER-Tracker™ Red (BODIPY® TR Glibenclamide), LysoTracker® Red DND-99, MitoTracker® Red CMXRos (1H,5H,11H,15H-Xantheno[2,3,4-ij:5,6,7-i′j′]diquinolizin-18-ium, 9-[4-(chloromethyl)phenyl]-2,3,6,7,12,13,16,17-octahydro-, chloride), β-BODIPY® FL C5-HPC (2-(4,4-Difluoro-5,7-Dimethyl-4-Bora-3a,4a-Diaza-s-Indacene-3-Pentanoyl)-1-Hexadecanoyl-sn-Glycero-3-Phosphocholine) or BODIPY® 500/510 C1, C12 (4,4-Difluoro-5-Methyl-4-Bora-3a,4a-Diaza-s-Indacene-3-Dodecanoic Acid), which were obtained from Life Technologies Australia Pty Ltd, Australia. Cell biology analysis was carried out with a minimum of two experimental groups. Imaging analysis was performed using a Nikon A1+ confocal microscope equipped with 403 nm, 488 nm, 561 nm and 640 nm solid-state lasers (Nikon, Japan) and OKOLab Microscope Incubator (Okolab USA Inc., USA). The final preparation of the images was conducted with Adobe Photoshop CC (Adobe Systems Inc., USA).
The H9c2 cells were incubated with 20 μM of Ir-based molecular probes for 30 minutes in FBS-free media (300 μL) at 37° C. and 5% CO2. These cells then were washed with phosphate buffered saline (PBS) and imaged using Zeiss LSM710 META NLO inverted microscope supplemented with a two-photon Mai-Tai®, tunable Ti:Sapphire femtosecond pulse laser (710-920 nm, Spectra-Physics). Fluorescence of Ir-based molecular probes was detected using the following settings: two-photon excitation wavelength 830 nm, beam splitter MBS 690+, emission interval 520-650 nm. The H9c2 cells were exposed to two-photon illumination between 810-840 nm. A continuum of lambda stack images was captured across the emission spectrum 416-728 nm. The images were acquired using a Plan-APOCHROMAT 63X/NA1.4 oil immersion objective. The final preparation of the images was conducted with Adobe Photoshop CC (Adobe Systems Inc., USA).

[3] = Lipophilicity by shake-flask method (7.4-buffered PBS / n-octanol); assay type: physicochemical; conditions: 7.4-buffered PBS solution and n-octanol
Procedure: The lipophilicity of the iridium complexes was measured by the shake-flask method using 7.4-buffered PBS and n-octanol as solvents (Table 2). The values range between 1.49 and 2.68 are typical for cyclometalated iridium complexes that have not been bioconjugated. […] In general, neutral complexes have log D7.4 values above 2.00 and there is an increased in lipophilicity of extending the tetrazolato ligand with the addition of a phenyl spacer in [Ir(ppy)2(TzPyPhCN)], or by extending the conjugation on passing from pyridine to quinoline or isoquinoline for [Ir(ppy)2(TzQn)] and [Ir(ppy)2(TziQn)]. Methylation in all cases reduces lipophilicity to log D7.4 values […], with the same trend within the family of methylated complexes as previously observed for the neutral ones.

Row | Compound | Emission λem ([1]; DCM, 10^−5 M) | Φaer, quantum yield ([1]; DCM, aerated) | Φdeaer, quantum yield ([1]; DCM) | emission in the various solvents ([1]; dichloromethane, water, PBS, lysosomal fluid, ethyl laurate) | emission detected from stained cells ([2]; live H9c2, 20 μM, 30 minutes) | τaer, excited state lifetime (relative weight in parentheses) ([1]; DCM, aerated) | τdeaer, excited state lifetime (relative weight in parentheses) ([1]; DCM) | knr ([1]; DCM) | kr ([1]; DCM) | Absorption λabs [nm] (10^4ε [M^−1cm^−1]) ([1]; H2O with 0.1% DMSO, 10^−5 M) | Emission λem ([1]; H2O with 0.1% DMSO, aerated) | Φ, quantum yield ([1]; H2O with 0.1% DMSO, aerated) | logD ([3]; pH 7.4, read-out: logD7.4, distribution coefficient) | cellular localisation (co-staining) ([2]; live H9c2, 20 μM, 30 minutes) | emission profile from cells ([2]; live H9c2, one-photon or two-photon excitation) | Absorption λabs [nm] (10^4ε [M^−1cm^−1]) ([1]; DCM, 10^−5 M) | logD7.4, distribution coefficient [3]
1 | C[n+]1nc2[n](n1)[Ir]13([c]4ccccc4-c4cccc[n+]41)([c]1ccccc1-c1cccc[n+]13)[n+]1cc(C#N)ccc1-2 [[Ir(ppy)2(MeTzPyCN)]^+] | 680 nm | 0.012 | 0.014 | appreciable emission only in dichloromethane solution | no emission was detected from stained cells | – | – | – | – | – | – | – | – | – | – | – | –
2 | C[n+]1nc2[n](n1)[Ir]13([c]4ccccc4-c4cccc[n+]41)([c]1ccccc1-c1cccc[n+]13)[n+]1c-2ccc2ccccc21 [[Ir(ppy)2(MeTzQn)]^+] | 635 nm | 0.028 | 0.043 | – | – | 218 ns | 546 ns | 1.753 10^6s^−1 | 0.788 10^5s^−1 | 251 (8.30) nm (10^4ε [M^−1cm^−1]) and 307 (2.52) nm (10^4ε [M^−1cm^−1]) and 364 (1.09) nm (10^4ε [M^−1cm^−1]) | 630 nm | 0.004 | 1.68 ± 0.05 | preferential localisation in the endoplasmic reticulum and fatty acids and phospholipids | blue-shifted and almost superimposable bands between these cationic complexes and their neutral analogues | – | –
3 | N#Cc1ccc(-c2ccc3[n+](c2)[Ir]24([c]5ccccc5-c5cccc[n+]52)([c]2ccccc2-c2cccc[n+]24)[n]2nnnc2-3)cc1 [[Ir(ppy)2(TzPyPhCN)]] | 560 nm | 0.023 | 0.149 | – | – | 114 ns | 880 ns | 0.967 10^6s^−1 | 1.693 10^5s^−1 | 286 (1.87) nm (10^4ε [M^−1cm^−1]) and 350 (0.86) nm (10^4ε [M^−1cm^−1]) and 421 (0.34) nm (10^4ε [M^−1cm^−1]) | 580 nm | 0.055 | – | – | – | 268 (3.95) nm (10^4ε [M^−1cm^−1]) and 290 (3.64) nm (10^4ε [M^−1cm^−1]) and 345 (0.58) nm (10^4ε [M^−1cm^−1]) and 423 (0.27) nm (10^4ε [M^−1cm^−1]) | 2.68 ± 0.08
